The values below are quoted from earlier work in patent US8716300B2, “Frequency modulated drug delivery (FMDD)” (Synthonics, Inc., priority 2008, dated 2014).

Molecules are shown by their SMILES.

In one data set the test system is MES induced seizures. Particulars: combined treatment of dizocilpine with valproate.
For a further data set, the system named is reserpinized rats. Particulars: remacemide 5 mg/kg administered with lowest effective dose of levodopa (75 mg/kg).

Take `C[C@]12N[C@H](Cc3ccccc31)c1ccccc12` [dizocilpine]: the “protection against MES induced seizures” value in the data set with MES induced seizures is reported as 50%. In addition, the “reduction in the ED50 of valproate” value with MES induced seizures (MES induced seizures) is reported as approximately 3 fold.

Regarding `CC(Cc1ccccc1)(NC(=O)CN)c1ccccc1` (stereo not drawn) [remacemide], the “increase in horizontal motor activity over levodopa given alone” value in the data set with reserpinized rats is on record as 9 fold.
